The results in this text go back to patent publication US20040086983A1, “Method for producing a heterocyclic compound and an aromatic carboxylic acid having one or more hydroxyl groups, and modified aromatic ring dioxygenase” (priority 2000, published 2004).

In test [1] the test system is biphenyl dioxygenase derived from the strain Pseudomonas pseudoalcaligenes KF707 (bphA1A2A3A4) expressed in E. coli (pKF6622). Type of test: cell-based. The conditions noted are these: 5 mg substrate in 70 ml M9 medium; for conversion rate: 28° C., 2 to 3 days, ratio of HPLC peak areas (max plot 230 to 350 nm); for conversion products observed: HPLC analysis. How it is done:
(§1) To start the conversion reaction, first, the necessary E. coli transformant cells were removed from the abovementioned glycerol stock culture with a platinum loop, suspended in 4 ml of LB medium containing 150 μg/ml ampicillin (Ap) and cultured at 28° C. for 7 to 8 hours at 175 rpm (pre-culture). […] The cells were recovered by centrifugation at 8,000 rpm for 5 minutes and suspended in 70 ml of M9 medium (supplemented with 150 μg/ml Ap, 0.4% (w/v) glucose, and 10 μg/ml thiamine) containing isopropyl-1-thio-β-D-galactopyranoside (IPTG) at a final concentration of 1 mM and 5 mg of a substrate, and the cultivation was further carried out at 28° C. for 2 to 3 days at 175 rpm. The substrate used was prepared by dissolving it in a solvent, such as ethanol, generally at a concentration of 10 mg/ml and added in an amount of 0.5 ml. On day 2 or 3 of the cultivation, the lipid was extracted by adding 70 ml of methanol and stirring for 30 minutes, and the supernatant was collected by centrifugation at 8,000 rpm for 5 minutes to obtain a crude lipid extract.
(§2) The HPLC analysis was carried out using a Puresil C18 column (4.6 mm×250 mm, Waters) at a rate of 1 ml/min. […] Conditions for development with solvents were as follows:
(§3) Solution A: water/methanol (50/50)
(§4) Solution B: methanol/2-propanol (60/40)
(§5) 0 to 5 min (solution A), 5 to 20 min (solution A)→(solution B) convex gradient (No. 3, Waters), 20 min−(solution B)
(§6) The conversion rate was expressed by a ratio of peak areas monitored at the wave length where the maximum absorbance was observed within the range from 230 to 350 nm (max plot).

The subject of test [2] is modified biphenyl dioxygenase (modified bphA1::bphA2A3A4) expressed in E. coli (pKF2072). Type of test: cell-based, Pseudomonas pseudoalcaligenes KF707. Conditions: 5 mg substrate in 70 ml M9 medium, 28° C., 2 to 3 days, ratio of HPLC peak areas (max plot 230 to 350 nm). How it is done:
as §1, §2, §3, §4, §5, §6

In test [3] the test system is modified bphA1::bphA2A3A4 expressed in Streptomyces lividans TK21 (pIJ-2072). Nature of the test: Conversion experiment using recombinant actinomycetes (pIJ-2072), HPLC analysis. Type of test: cell-based, Pseudomonas pseudoalcaligenes KF707. Conditions: substrate 0.1 mg/ml, cells 10 mg/ml, 30° C., 2 days. How it is done: Plasmid pKF2072 was double-digested with SacI/SmaI, after which a 4.06 kb fragment containing the modified bphA1::bphA2A3A4 was excised. Then, vector pIJ6021 for actinomycetes (see E. Takano, J. White, C. J. Thompson, M. J. Bibb, Gene, 166, 133-137, 1995) was double-digested with NdeI-HindIII, and then the abovementioned 4.06 kb SacI-HindIII fragment and a synthesized DNA 5′-[…]-3′ were added. After annealing, treatment with a Klenow fragment enzyme was followed by a ligation reaction. E. coli JM109 strain was transformed, after which the objective plasmid pIJ-2072 was obtained. The pIJ-2072 was designed so that the modified bphA1 gene is located immediately downstream of a powerful actinomycetes promoter PtipA and its ribosome binding site, being followed by the bphA2A3A4 gene. Namely, the 5′ binding site is […]. The underlined segment is the ribosome binding site, and the modified bphA1 gene starts at ATG from nucleotide 18 to nucleotide 20. This plasmid pIJ-2072 was used to transform actinomycetes Streptomyces lividans TK21 (see D. A. Hopwood, M. J. Bibb, K. F. Chater et al., Genetic Manipulation of Streptomyces: A laboratory Manual, The John Innes Institute, Norwich, 1985). […]

With `c1ccc(-c2nc3ccccc3s2)cc1` [2-phenylbenzothiazole], the values for the conversion rate in test [1] and in test [2] were 36% and 81%, respectively.
For the molecule `Cc1ccc(-c2ccccn2)cc1` [2-(p-tolyl)pyridine], the conversion rate came out at 61% in test [1] and 96% in test [2].
Consider `Cc1cccnc1-c1ccccc1` [3-methyl-2-phenylpyridine], for which the conversion products observed entry in test [1] is listed as “hardly observed”. In test [2], the conversion rate stood at 16%.
As for `c1ccc(-c2cc3ccccc3[nH]2)cc1` [2-phenylindole], the figures for the conversion rate in test [1] and in test [2] were 23% and 71%, respectively.
`c1ccc(-n2cccc2)cc1` [1-phenylpyrrole]: the conversion rate in test [1] and in test [2] was 100% each time.
Turning to `c1ccc(Cc2ccccn2)cc1` [2-benzylpyridine], the conversion rate in test [1] is recorded as 11%; in test [2] it was 57%.
As to `Oc1ccccc1-c1nc2ccccc2o1` [2-(2-hydroxyphenyl)-benzoxazole], the conversion rate in test [1] was determined as 25%; in test [2], 39%.
For `c1ccc(-c2nc3ccccc3o2)cc1` [2-phenylbenzoxazole] the same measures were 45% and 100%.
For the molecule `c1ccc(-c2ccncn2)cc1` [4-phenylpyrimidine], in test [1], the conversion products observed entry is listed as “hardly observed”. Moreover, the conversion rate in test [2] was found to be 100%.
In the case of `c1ccc(-n2cccn2)cc1` [1-phenylpyrazole], the conversion products observed entry in test [1] is on record as “hardly observed”. In test [2], the conversion rate is given as 47%.
In the case of `CCCCc1cc2ccccc2o1` [2-n-butylbenzofuran], the results for the conversion rate in test [1] and in test [2] were 90% and 100%, respectively.
For `Cc1ccn(-c2ccccc2)n1` [3-methyl-1-phenylpyrazole] the same measures were 63% and 100%.
Turning to `O=C1CC(c2ccccc2)c2ccccc21` (centres unmarked) [3-phenyl-1-indanone], the conversion rate in test [1] is reported as 93%; in test [2], 97%.
For `c1ccc(-c2ccc3ccccc3n2)cc1` [2-phenylquinoline], the “converted into its diol derivative, yield” value in test [3] was roughly 100%. Moreover, the conversion rate came to 53% in test [1] and 89% in test [2].
Turning to `c1ccc(Cc2cnsc2)cc1` [4-benzylisothiazole], the conversion rate in test [1] is recorded as 27%; in test [2], 65%.
The like results for `c1ccc(Cn2ccnc2)cc1` [1-benzylimidazole] were, in that order, 43% and 97%.
Turning to `CCCCCCc1ccsc1` [3-n-hexylthiophene], the figures for the conversion rate in test [1] and in test [2] were 99% and 100%, respectively.
